These results are taken from US20180353462A1, “[…] AGENTS […] FLAVONOID DERIVATIVES TARGETING KINASES, SIRTUINS AND ONCOGENIC AGENTS FOR THE TREATMENT OF CANCERS” (priority 2015, published 2018).

For one assay, the target named is T1, EPHB6 (Homo sapiens, UniProt O15197).
T1 construct: made in house
T1 sequence (O15197 32-1021): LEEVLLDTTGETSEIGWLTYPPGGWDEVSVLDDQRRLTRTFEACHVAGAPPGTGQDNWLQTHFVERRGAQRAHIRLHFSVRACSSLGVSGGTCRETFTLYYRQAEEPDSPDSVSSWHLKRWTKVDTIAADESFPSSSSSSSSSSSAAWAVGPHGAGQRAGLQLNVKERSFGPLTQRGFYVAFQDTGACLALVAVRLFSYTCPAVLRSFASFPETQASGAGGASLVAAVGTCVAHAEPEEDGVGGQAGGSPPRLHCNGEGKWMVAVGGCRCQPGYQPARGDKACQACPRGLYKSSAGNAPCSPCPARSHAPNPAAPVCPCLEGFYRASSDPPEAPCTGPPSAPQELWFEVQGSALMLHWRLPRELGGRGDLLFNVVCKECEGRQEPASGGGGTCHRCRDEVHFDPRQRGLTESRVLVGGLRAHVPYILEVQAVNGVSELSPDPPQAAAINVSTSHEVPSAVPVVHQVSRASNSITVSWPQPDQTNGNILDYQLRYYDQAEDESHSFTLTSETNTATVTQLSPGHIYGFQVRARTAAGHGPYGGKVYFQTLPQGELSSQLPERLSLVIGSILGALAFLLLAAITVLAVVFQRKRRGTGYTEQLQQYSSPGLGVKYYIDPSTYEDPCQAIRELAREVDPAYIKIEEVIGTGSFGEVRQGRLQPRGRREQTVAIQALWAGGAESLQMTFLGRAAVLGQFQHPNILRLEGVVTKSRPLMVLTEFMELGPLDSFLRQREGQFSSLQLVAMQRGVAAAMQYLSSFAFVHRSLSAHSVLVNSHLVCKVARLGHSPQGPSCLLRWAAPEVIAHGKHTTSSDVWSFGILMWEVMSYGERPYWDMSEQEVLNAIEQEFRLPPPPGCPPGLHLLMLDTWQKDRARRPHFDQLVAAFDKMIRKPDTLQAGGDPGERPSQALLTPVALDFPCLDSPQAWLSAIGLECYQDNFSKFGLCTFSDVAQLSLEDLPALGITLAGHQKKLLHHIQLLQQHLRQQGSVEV
Put plainly: Kinase competition binding assay, EPHB6. The settings on record: Table 1 kinase panel. On the procedure: (§1) Cannabis flavonoids and their analogs were subjected to kinase inhibition assay. The compounds were first screened at a single concentration of 10 μM in the primary assay. […]. To determine the kd or IC50 values, competition binding assays were established, authenticated and executed as described previously. Fabian et al., “A Small Molecule-Kinase Interaction Map For Clinical Kinase Inhibitors.”, Nat Biotechnol, 23(3):329-36, Epub (2005). See also, Karaman et al., “A Quantitative Analysis Of Kinase Inhibitor Selectivity”, Nat. Biotechnol. […] For most assays, kinases were fused to T7 phage strains (Fabian, supra) and for the other assays, kinases were produced in HEK-293 cells after which they were tagged with DNA for quantitative PCR detection. In general, full-length constructs were used for small, single domain kinases, and catalytic domain constructs for large multi-domain kinases. The binding assays utilized streptavidin-coated magnetic beads treated with biotinylated small molecule ligands for 30 minutes at room temperature which generated affinity resins for the kinase assays. The liganded beads were blocked with excess biotin and washed with blocking buffer (SeaBlock (Pierce), 1% BSA, 0.05% Tween 20, 1 mM DTT) to remove unbound ligand and to reduce non-specific phage binding. […] Test compounds were prepared as 40× stocks in 100% DMSO and diluted directly into the assay (Final DMSO concentration=2.5%). All reactions were performed in polypropylene 384-well plates in a final volume of 0.04 ml. […] The beads were then re-suspended in elution buffer (1×PBS, 0.05% Tween 20, 0.5 μM non-biotinylated affinity ligand) and incubated at room temperature with shaking for 30 minutes. The kinase concentration in the eluates was measured by quantitative PCR. An illustration of the kinase interaction process is presented below. Kd/IC50 values were determined using a standard dose response curve using the hill equation. Curves were fitted using a non-linear least square fit with the Levenberg-Marquardt algorithm.
(§2) The compound(s) were screened at 10 μM and results for primary screen binding interactions are reported as ‘% Ctrl’, where lower numbers indicate stronger hits in the matrix.

A further assay deals with T2, FLT4(VEGFR3) (Homo sapiens, UniProt P35916).
T2 construct: made in house
Put plainly: Kinase competition binding assay, FLT4(VEGFR3). Particulars: Table 1 kinase panel. On the procedure: as §1, §2

The target of another assay is T3, MEK5 (Homo sapiens, UniProt Q13163).
T3 construct: made in house
T3 sequence (Q13163 1-448): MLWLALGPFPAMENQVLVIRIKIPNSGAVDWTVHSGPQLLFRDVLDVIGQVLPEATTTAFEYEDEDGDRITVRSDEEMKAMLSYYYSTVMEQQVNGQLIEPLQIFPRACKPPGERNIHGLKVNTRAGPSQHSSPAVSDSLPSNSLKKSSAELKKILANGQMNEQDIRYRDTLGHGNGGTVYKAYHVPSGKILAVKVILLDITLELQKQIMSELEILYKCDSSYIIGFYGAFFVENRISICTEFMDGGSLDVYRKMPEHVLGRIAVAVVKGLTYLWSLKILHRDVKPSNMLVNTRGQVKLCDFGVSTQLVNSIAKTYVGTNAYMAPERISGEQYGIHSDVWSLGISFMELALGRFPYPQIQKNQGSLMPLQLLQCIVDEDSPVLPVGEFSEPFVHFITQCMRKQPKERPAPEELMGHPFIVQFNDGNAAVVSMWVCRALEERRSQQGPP
As to the kind of experiment: Kinase competition binding assay, MEK5. The settings on record: Table 1 kinase panel. On the procedure:
as §1, §2

The next assay addresses T4, PDGFRB (Homo sapiens, UniProt P09619).
T4 construct: catalytic domain constructs for large multi-domain kinases; T7 phage fusion (most assays) or DNA tag for qPCR (HEK-293-made kinases); made in house
Put plainly: Kinase competition binding assay, PDGFRB. The settings on record: Table 1 kinase panel. On the procedure:
as §1, §2

The next assay has as its system CFPAC-1 (Pancreatic). As to the kind of experiment: WST-1 anticancer cell proliferation assay, CFPAC-1. The settings on record: 72 hours. It is filed as cell-based, human. On the procedure:
Bioactivity of the above-described compounds has been verified by an anticancer cell proliferation assay using the WST-1 (4-[3-(4-iodophenyl)-2-(4-nitrophenyl)-2H-5-tetrazolio]-1, 3-benzene disulfonate) colorimetric assay by Roche Life Sciences®. Anticancer activity was tested against several standard cancer cell lines including brain, breast, Kaposi sarcoma, leukemia, lung, melanoma, tenosynovial giant cell tumor, ovarian, pancreatic, colon and prostate cancer. Cells were trypsinized and plated into 96 well plates in 50 μl of media and incubated overnight. The next day approximately 18 hours after plating, 50 μl of media containing the required flavonoid-based pharmaceutical composition was added per well. Cells were plated at a density so that 72 hours post drug addition, the cells will be in log phase (500)-2000 cells/well). The compounds and extracts were solubilized in Dimethyl sulfoxide (DMSO). The cells are allowed to proliferate for 72 hours 37° C. in humidified atmosphere of 5% CO2. The experiment is terminated using WST-1 (Roche®) 10 μl per well and absorbance is read at 450 nm %690 nm. The effect of drugs on growth is assessed as percent of cell viability. The IC50 values were determined from the extract dose versus control growth curves using Graphpad Prism® software. All experiments were carried out in duplicate and the mean results determined.

T4 sequence (P09619 600-962 limits assumed): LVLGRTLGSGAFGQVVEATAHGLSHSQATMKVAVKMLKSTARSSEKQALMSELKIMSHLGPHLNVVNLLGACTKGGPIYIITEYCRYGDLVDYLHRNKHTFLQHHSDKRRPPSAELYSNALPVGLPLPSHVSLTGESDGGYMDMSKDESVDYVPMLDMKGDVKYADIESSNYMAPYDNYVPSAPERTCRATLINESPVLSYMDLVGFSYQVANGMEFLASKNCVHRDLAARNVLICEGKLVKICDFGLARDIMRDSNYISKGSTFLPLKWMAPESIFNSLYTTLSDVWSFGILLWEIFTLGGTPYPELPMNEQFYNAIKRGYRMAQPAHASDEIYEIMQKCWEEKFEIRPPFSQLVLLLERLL
T2 sequence (P35916 25-1363): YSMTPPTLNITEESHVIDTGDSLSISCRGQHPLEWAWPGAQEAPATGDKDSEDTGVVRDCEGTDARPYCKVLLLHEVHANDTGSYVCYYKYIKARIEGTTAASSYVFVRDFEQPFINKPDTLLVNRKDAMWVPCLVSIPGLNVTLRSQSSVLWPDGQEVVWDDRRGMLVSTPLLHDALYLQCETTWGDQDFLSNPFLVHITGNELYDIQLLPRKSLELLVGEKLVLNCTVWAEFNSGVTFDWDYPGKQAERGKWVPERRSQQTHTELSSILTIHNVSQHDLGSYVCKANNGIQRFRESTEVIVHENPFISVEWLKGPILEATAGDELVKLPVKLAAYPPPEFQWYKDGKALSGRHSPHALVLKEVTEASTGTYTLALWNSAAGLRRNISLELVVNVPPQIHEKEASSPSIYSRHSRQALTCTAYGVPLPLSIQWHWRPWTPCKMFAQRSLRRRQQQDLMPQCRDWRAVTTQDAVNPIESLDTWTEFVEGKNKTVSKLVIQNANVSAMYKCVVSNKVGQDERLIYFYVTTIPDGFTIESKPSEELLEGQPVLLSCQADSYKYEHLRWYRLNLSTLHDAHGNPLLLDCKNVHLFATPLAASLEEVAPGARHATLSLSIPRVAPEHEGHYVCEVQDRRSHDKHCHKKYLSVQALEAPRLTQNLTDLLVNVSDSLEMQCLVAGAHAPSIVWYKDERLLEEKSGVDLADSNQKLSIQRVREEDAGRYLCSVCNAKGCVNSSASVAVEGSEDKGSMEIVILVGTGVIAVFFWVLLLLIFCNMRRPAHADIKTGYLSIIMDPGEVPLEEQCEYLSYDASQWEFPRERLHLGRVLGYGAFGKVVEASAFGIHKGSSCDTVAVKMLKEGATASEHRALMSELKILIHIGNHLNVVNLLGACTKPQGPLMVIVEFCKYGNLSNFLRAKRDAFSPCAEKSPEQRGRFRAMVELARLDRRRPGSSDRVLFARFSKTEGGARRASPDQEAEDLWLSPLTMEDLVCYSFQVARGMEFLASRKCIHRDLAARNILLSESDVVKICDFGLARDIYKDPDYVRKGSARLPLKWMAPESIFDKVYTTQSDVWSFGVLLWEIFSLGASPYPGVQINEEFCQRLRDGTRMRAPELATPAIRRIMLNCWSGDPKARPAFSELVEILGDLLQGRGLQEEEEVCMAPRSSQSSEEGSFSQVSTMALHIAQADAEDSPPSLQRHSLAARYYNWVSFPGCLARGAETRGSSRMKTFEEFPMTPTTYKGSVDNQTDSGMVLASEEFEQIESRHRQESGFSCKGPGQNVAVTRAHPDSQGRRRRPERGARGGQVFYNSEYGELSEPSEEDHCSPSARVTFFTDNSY

As to `COc1cc(-c2cc(=O)c3c(O)cc(O)c(C/C=C(\C)CCC=C(C)C)c3o2)ccc1O` [FBL-03C], the IC50 (in general, the concentration needed to halve the response being measured) on EPHB6 is 270 nM; on FLT4(VEGFR3), over 20000 nM; on MEK5, 84 nM; on PDGFRB, over 1000 nM; with CFPAC-1 (Pancreatic) it was 12 µM.
Regarding `COc1ccc(-c2cc(=O)c3c(O)c(C/C=C(\C)CCC=C(C)C)c(O)cc3o2)cc1OC` [FBL-03D], the IC50 at EPHB6, on FLT4(VEGFR3), on MEK5 and on PDGFRB was over 30000 nM throughout.
Turning to `COc1cc(-c2cc(=O)c3c(O)cc(O)c(CC=C(C)C)c3o2)ccc1O` [FBL-03G], the IC50 on EPHB6 was over 1000 nM; on FLT4(VEGFR3) it was 4220 nM; on MEK5 it was over 1000 nM; at PDGFRB, 3310 nM; in the assay on CFPAC-1 (Pancreatic) it was 14.3 µM.
As to `COc1cc(-c2cc(=O)c3c(O)c(C/C=C(\C)CCC=C(C)C)c(O)cc3o2)ccc1O` [FBL-03A], the IC50 is over 20000 nM on EPHB6; 330 nM at FLT4(VEGFR3); 140 nM on MEK5; 330 nM on PDGFRB; 12 µM with CFPAC-1 (Pancreatic).
Turning to `COc1cc(-c2cc(=O)c3c(O)c(CC=C(C)C)c(O)cc3o2)ccc1O` [FBL-03B], the IC50 at EPHB6 is over 1000 nM; at FLT4(VEGFR3), 9.3 nM; at MEK5, over 1000 nM; at PDGFRB, 1160 nM; with CFPAC-1 (Pancreatic) it was 17 µM.
